Article PMC10244669, “Virtual screening–based discovery of AI-2 quorum sensing inhibitors that interact with an allosteric hydrophobic site of LsrK and their functional evaluation” (Frontiers in Chemistry, 2023)
Read-outs that look alike come from different tables or passages of the source.

Experiments:
[1] = test system: AI-2-mediated QS (lsr promoter luminescence, reporter strain WHQ02); experiment: Cell-based AI-2-mediated QS interference assay; parameters: species or system E. coli; conditions: Escherichia coli; cell-based QS interference assay, WHQ02; mean ± SD, n = 3
Source text: All chemicals were purchased from Sigma-Aldrich (St. Louis, MO, United States) unless otherwise stated. DPD was purchased from the […] ZZBIO Co., LTD. (Shanghai, China). The Kinase-Glo Max Luminescent Kinase Assay Kit was purchased from Promega (Madison, WI, United States). NTA sensor chips were purchased from GE Healthcare (Chicago, IL, United States). All compounds used as potential inhibitors of LsrK were purchased from Topscience Biotechnology Co. Ltd. (Shanghai, China). The QS reporter strain WHQ02 (E. coli BL21 ΔTolC pWHQ01) was donated by Huiqi Wen (Institute of Microbiology and Epidemiology, Academy of Military Sciences, Beijing, China). The plasmid pWHQ01 was constructed by cloning the lsr promoter and the luxCDABE luminescent gene. BamHI and XhoI were purchased from New England Biolabs (Ipswich, MA, United States). pET-28a was purchased from Novagen (Madison, WI, United States). Escherichia coli BL21 (DE3) cells were purchased from TransGen Biotech Co., LTD. (Beijing, China). A Ni-NTA column was purchased from Sangon Biotech (Shanghai, China). Sodium dodecyl sulfate-polyacrylamide gel electrophoresis (SDS-PAGE) and the Bradford Protein Assay Kit were purchased from Thermo Fisher Scientific (Waltham, MA, United States).
WHQ02 cultured overnight were diluted 1:100 in fresh LB supplemented with 100 μg/mL ampicillin and grown at 30°C and until the logarithmic phase (OD600 = 0.4–0.6). The bacterial culture was centrifuged at 4,000 × g for 5 min, and the pellet was resuspended in fresh LB medium to prepare a suspension of 2 McFarland standard and added to the 96-well plate. In the experimental group, 74 compounds (final concentrations ranging from 100 to 3.125 μM) were added to reach a total volume of 100 µL. In addition, 100 µL LB medium with an equal volume of DMSO (negative control) or 100 µL LB supplemented with 2% glucose and the same volume of DMSO (positive control) were added. Bacteria was cultured at 37°C with shaking for 3 h. The […] of WHQ02 is directly regulated by the lsr promoter, reflecting the strength of QS. The luminescence and OD600 were measured using an Enspire 2300 microplate reader (Perkin Elmer). To further study the effect of compounds on bacterial growth, overnight cultured WHQ02 was diluted 1:1,000 with LB medium and added to 96 well plate. Then, the compounds were added to a 96-well plate (final concentration: 100 µM) and diluted in a gradient. The same volume of DMSO was added to the control group. The plates were incubated at 37°C for 18 h. OD600 values were recorded using an Enspire 2300 microplate reader. The experiment was performed in triplicate.

LsrK [2] = molecular target: LsrK (Salmonella typhimurium, UniProt Q8ZKQ6); experiment: LsrK inhibition assay (Kinase-Glo luminescence); format: biochemical; conditions: mean ± SD, n = 3; for Inhibition (%): Supplementary Table 1, 200 uM compound, * = colour of the compound interferes with luminescence
LsrK (Salmonella typhimurium, UniProt Q8ZKQ6), sequence (Q8ZKQ6 whole entry): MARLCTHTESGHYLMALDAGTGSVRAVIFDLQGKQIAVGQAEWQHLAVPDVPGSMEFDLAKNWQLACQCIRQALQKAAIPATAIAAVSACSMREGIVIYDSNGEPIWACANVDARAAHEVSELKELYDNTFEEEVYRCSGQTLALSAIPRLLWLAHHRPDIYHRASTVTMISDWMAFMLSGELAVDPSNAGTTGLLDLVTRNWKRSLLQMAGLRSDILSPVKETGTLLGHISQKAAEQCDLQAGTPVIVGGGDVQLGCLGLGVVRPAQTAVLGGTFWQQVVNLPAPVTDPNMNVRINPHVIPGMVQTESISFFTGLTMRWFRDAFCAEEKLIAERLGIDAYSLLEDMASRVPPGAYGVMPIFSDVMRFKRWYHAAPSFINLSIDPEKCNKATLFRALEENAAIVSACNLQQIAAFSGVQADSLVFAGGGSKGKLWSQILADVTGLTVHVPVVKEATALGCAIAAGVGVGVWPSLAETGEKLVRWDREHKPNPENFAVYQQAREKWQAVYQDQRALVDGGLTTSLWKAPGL
Procedure: To express LsrK with a 6 × His-tag at the C-terminus, the LsrK encoding gene of Salmonella typhimurium was amplified using primers carrying restriction endonuclease sites BamHI and XhoI. The amplified product was cloned into the expression vector pET-28a with a C-terminal 6 × His-tag and transfected into E. coli BL21 (DE3).
This assay was performed as previously described ([Gatta et al., 2019]), and the conditions were optimized. […] 74 purchased compounds were dissolved in dimethyl sulfoxide (20% v/v DMSO in reaction buffer) at a concentration of 2 mM. Briefly, 10 μL DPD, 10 μL LsrK, and 5 μL compound were added to a 96-well plate, and 25 μL ATP or 25 μL reaction buffer was added after 30 min incubation. The plate was incubated for 10 min at 37°C, then 50 μL of kit reagent was added, and the plate was incubated at 37°C for 15 min. The luminescence signal was measured using an Enspire 2300 microplate reader (PerkinElmer). Dose-response tests were carried out to verify the activity of hits chosen by primary screening. (200 μM–6.25 µM) ([Medarametla et al., 2018]). The inhibition percentage of each tested compound was determined as previously described and IC50 was calculated using four logistic parameters.

LsrK [3] = conditions: Figure 2, cited from earlier work
AI-2 QS = conditions: Figure 2, ref Gatta et al., cited from earlier work

## Cc1ccc(C(=O)O)cc1NC(=O)c1nn2cccnc2c1Cl [Y502-2013]
[1]
  IC50: > 100 µM
LsrK [2]; 100 μM ATP, read-out: IC50B
  IC50: 140 ± 5.54 µM
LsrK [2]; Table 1, hits at 200 μM with 100 μM ATP
  inhibition at 200 µM: 69.1 ± 8.64%

## O=C(NC(Cc1c[nH]c2ccccc12)C(=O)O)c1ccccc1Cl (centres unmarked) [Z85881721]
LsrK [2]; 100 μM ATP
  Inhibition (%): 10.12 ± 8.78%

## O=C(O)CCn1c(=O)[nH]c(=O)c2ccccc21 [Z166653136]
LsrK [2]; 100 μM ATP
  Inhibition (%): 0%

## CN(C)C(=O)C1CCCN1Cc1nc2sc(-c3ccccc3)cc2c(=O)[nH]1 (centres unmarked) [Z196022762]
LsrK [2]; 100 μM ATP
  Inhibition (%): 57.11 ± 2.22%

## CC(C)c1ccc2nc(Cc3cccc(C(N)=O)c3)[nH]c(=O)c2c1 [Z951211480]
LsrK [2]; 100 μM ATP
  Inhibition (%): 0%

## Cc1ccc(Cl)c(Nc2ccccc2C(=O)O)c1Cl [compound 1]
LsrK [3]; ref Medarametla et al., 2018
  IC50: 178 µM

## O=C(O)CC(=O)Nc1ccc2nc(N(Cc3ccccc3)C(=O)c3cc(Br)c(Br)[nH]3)sc2c1 [compound 2]
AI-2 QS; 2020
  IC50: 17 µM
LsrK [3]; ref Gatta et al., 2020
  IC50: 15 ± 1 µM

## O=C(O)C(=O)Nc1nc2ccc(NC(=O)c3cc(Br)c(Br)[nH]3)cc2s1 [compound 3]
AI-2 QS; 2020
  IC50: 0.6 ± 0.1 µM
LsrK [3]; ref Gatta et al., 2020
  IC50: 18 ± 2 µM

## C[C@]1(OC(=O)/C=C/c2ccccc2)C[C@@H](O)[C@]2(O)C=CO[C@@H](O[C@@H]3O[C@H](CO)[C@@H](O)[C@H](O)[C@H]3O)[C@@H]21 [compound 4, harpagoside]
AI-2 QS; 2019
  IC50: 14 µM
LsrK [3]; ref Gatta et al., 2019
  IC50: 10 µM

## O=C1C=CC(=C(c2ccc(O)cc2)c2ccc(O)cc2)C=C1 [compound 5, rosolic acid]
AI-2 QS; 2019
  IC50: 11 µM
LsrK [3]; ref Gatta et al., 2019
  IC50: 1 µM

## Cn1nc(-c2ccccc2)cc1C1COC2(CCCCC2)O1 (centres unmarked) [compound 6]
LsrK [3]; ref Stotani et al., 2019
  IC50: 119 µM
